One data set deals with cruzain (Trypanosoma cruzi, UniProt P25779). The data set is described as follows: biochemical. The class given is biochemical. Conditions: for change of cruzain IC50 between low and high detergent concentration: 0.001% vs 0.01% Triton X-100; for cruzain inhibition (in words): Figure 1 analogs.
In a further data set the target is AmpC β-lactamase (Escherichia coli, UniProt P00811). The data set is described as follows: AmpC β-lactamase detergent-sensitive inhibition. It is filed as biochemical. The conditions noted are these: reversal by 0.01% Triton.
Sequence of AmpC β-lactamase (P00811 20-377): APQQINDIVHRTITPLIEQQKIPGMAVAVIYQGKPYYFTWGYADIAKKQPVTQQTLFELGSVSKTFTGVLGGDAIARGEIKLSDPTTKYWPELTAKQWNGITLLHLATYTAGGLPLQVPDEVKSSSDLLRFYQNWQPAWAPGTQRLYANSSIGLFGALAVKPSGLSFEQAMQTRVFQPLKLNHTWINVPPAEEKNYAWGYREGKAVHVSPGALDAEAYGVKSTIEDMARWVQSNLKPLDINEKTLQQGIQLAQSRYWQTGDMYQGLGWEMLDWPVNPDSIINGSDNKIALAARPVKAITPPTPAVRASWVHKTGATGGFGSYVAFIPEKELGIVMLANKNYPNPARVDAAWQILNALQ
A further data set in a line: particle. It is filed as physicochemical. Conditions: for particles? lowest evaluated concentration at which particle formation was observed: flow cytometry, in some cases confirmed by DLS.
The mark [1] stands for this setting: high Triton (0.01% Triton X-100), 23 at 50 μM.
[2] abbreviates: low Triton (0.001% Triton X-100), 23 at 5 μM, 1 at 25 μM.

Consider nine compounds from article PMC3760508 (Journal of medicinal chemistry, 2009).

SMILES strings stand for the structures. Where only a bound is given, the exact number is not on record here.

Sequence of cruzain (P25779 123-467): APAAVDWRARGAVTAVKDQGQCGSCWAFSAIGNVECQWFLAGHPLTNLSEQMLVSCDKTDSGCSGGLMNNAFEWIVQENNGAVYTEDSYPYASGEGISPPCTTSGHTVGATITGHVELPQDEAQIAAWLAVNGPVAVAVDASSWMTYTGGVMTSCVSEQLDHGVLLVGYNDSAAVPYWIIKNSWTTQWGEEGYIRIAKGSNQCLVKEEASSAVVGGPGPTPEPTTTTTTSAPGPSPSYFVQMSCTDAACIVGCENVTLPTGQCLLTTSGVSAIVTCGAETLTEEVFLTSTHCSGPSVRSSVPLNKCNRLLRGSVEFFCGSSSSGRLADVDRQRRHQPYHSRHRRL

On to `Nc1ncccc1C(=O)OCC(=O)NC1CCCCCC1` [Compound 2], for which, on cruzain, the “change of cruzain IC50 between low and high detergent concentration” value (from here on “change”) is “essentially unaltered”. In addition, on cruzain (setting [1]), the “mode of cruzain inhibition” value is on record as “competitive inhibitors”.
Regarding `Nc1ncccc1C(=O)OCC(=O)Nc1cc(Cl)ccc1Cl` [Compound 1], at AmpC β-lactamase, the “detergent-reversible inhibition of AmpC β-lactamase” value is “found to inhibit AmpC, and its inhibition was reversed by 0.01% Triton”. Besides, in “particle”, the “particles? lowest evaluated concentration at which particle formation was observed” value was found to be 25 µM. On cruzain, the “change” value is reported as ~ 3 fold. Moreover, on cruzain (0.01% Triton X-100), the “dependence of cruzain inhibition on incubation time” value is “independent of incubation time”. Also, the “mode of cruzain inhibition” value is recorded as “competitive inhibition” at cruzain (setting [1]) and “non-competitive” at cruzain (setting [2]).
As to `Cc1cc(NC(=O)c2nnc(-c3ccccc3N)o2)n[nH]1` [Compound 25], the “detergent-reversible inhibition of AmpC β-lactamase” value at AmpC β-lactamase is given as “the exception”.
On to `Nc1ccccc1-c1nnc(C(=O)Nc2ccc3oc4c(c3c2)CCCC4)o1` [Compound 12], for which the “formation of colloidal aggregates (particles)” value in the data set “particle” (DLS and flow cytometry, 0.001% Triton X-100, relevant inhibitory concentrations) was “the exception”. Moreover, in “particle”, the “particles? lowest evaluated concentration at which particle formation was observed” value was more than 100 µM.
In the case of `O=C(COC(=O)c1ccccn1)Nc1cc(Cl)ccc1Cl` [Compound 4], the “cruzain inhibition (in words)” value at cruzain is “essentially inactive”.
Still for that read-out and setting: then `Cc1cccc(C(=O)OCC(=O)Nc2cc(Cl)ccc2Cl)c1` [Compound 5], with “essentially inactive”.
For the compound `Nc1ccccc1-c1nnc(C(=O)Nc2cc(-c3cccs3)[nH]n2)o1` [Compound 23], on cruzain, the IC50 (commonly the point on the concentration scale where inhibition reaches its midpoint) is 82.4 µM. The “mode of cruzain inhibition” value on cruzain (setting [1]) is “competitive”; at cruzain (setting [2]), “non-competitive”.
With `CCC(NC(=O)COC(=O)c1cccnc1N)c1ccc(Br)cc1` (stereo not shown) [Compound 3], on cruzain, the “change” value was “essentially unaltered”. Also, the “mode of cruzain inhibition” value at cruzain (setting [1]) was “competitive inhibitors”.
For the compound `CCN1CCC[C@H]1CNC(=O)c1nnc(-c2ccccc2N)o1` [Compound 18], in the data set “particle”, the “particles? lowest evaluated concentration at which particle formation was observed” value was more than 200 µM.
